Data from patent US11149031B2, “Substituted N-(3-fluoropropyl)-pyrrolidine compounds, processes for their preparation and therapeutic uses thereof” (SANOFI, priority 2016, dated 2021).
Like-named read-outs stand apart in the source and are kept apart here.

How the values were obtained:
[1] = target: His6-ERα298-554 WT (ERα ligand-binding domain) (Homo sapiens (Human), UniProt P03372); assay: Test A: biochemical antagonist activity, LanthaScreen TR-FRET ERα coactivator assay, WT; conditions: read-out: Antagonism WT IC50
Outline: (§1)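 TR-FRET 520:495 nm emission ratio read after overnight room-temperature incubation; IC50 derived by 4-parameter logistic fit. Mix: 0.5 nM receptor LBD, 0.5 nM Tb-His6 antibody, 250 nM PGC1a peptide, 3 nM or 10 nM estradiol, pH 7.4 phosphate buffer.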

[2] = test system: MCF7 cells expressing mutant estrogen receptor Asp 538 Gly; assay: Test B: cell proliferation/viability assay (CellTiter-Glo) on MCF7 Asp 538 Gly mutant; type: cell-based; conditions: Homo sapiens, MCF7, 168 h, MCF7 cells expressing ER Asp 538 Gly mutant, 7 days of compound exposure, read-out: proliferation MCF7 D538G IC50
Outline: (§2)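 Seven-day compound exposure, 9 concentrations from 3 to 0.000001 μM, in phenol red-free medium with 5% charcoal-stripped serum. ER Tyr537Ser and Asp538Gly lines derive from transfected MCF7 selected to grow without estradiol. Viability from CellTiter-Glo luminescence, background-corrected, as percent of untreated.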

[3] = target: His6-ERα298-554 Y537S mutant (ERα ligand-binding domain) (Homo sapiens (Human), UniProt P03372, Y537S); assay: Test A: biochemical antagonist activity, LanthaScreen TR-FRET ERα coactivator assay, Y537S mutant; conditions: read-out: Antagonism Y537S IC50
Outline: as §1

[4] = target: His6-ERα298-554 D538G mutant (ERα ligand-binding domain) (Homo sapiens (Human), UniProt P03372, D538G); assay: Test A: biochemical antagonist activity, LanthaScreen TR-FRET ERα coactivator assay, D538G mutant; conditions: read-out: Antagonism D538G IC50
Outline: as §1

[5] = test system: MCF7 cells (breast tumor cells) WT; assay: Test B: cell proliferation/viability assay (CellTiter-Glo) on MCF7 WT; type: cell-based; conditions: Homo sapiens, MCF7, 168 h, 7 days of compound exposure
Outline: as §2

ERα in MCF7 cells = ERα in MCF7 cells (Homo sapiens (Human), UniProt P03372); assay: Test C: estrogen receptor degradation activity, ERα in cell western assay in MCF7 cells; type: cell-based; conditions: for DC50: 4 hours post compound addition, ERα in cell western, read-out: Degradation IC50; for % Degradation at 3 μM: 4 hours, relative to fulvestrant
Outline: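 In-cell western: ERα level (green) against DNA stain Syto-64 (red) by integrated intensity. MCF7 cells in hormone-depleted medium exposed 4 h to compound at 3-0.000018 μM final (1:5 series); fulvestrant 0.1 μM as positive control.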

[6] = test system: MCF7 cells expressing mutant estrogen receptor Tyr 537 Ser; assay: Test B: cell proliferation/viability assay (CellTiter-Glo) on MCF7 Tyr 537 Ser mutant; type: cell-based; conditions: Homo sapiens, MCF7, 168 h, MCF7 cells expressing ER Tyr 537 Ser mutant, 7 days of compound exposure, read-out: proliferation MCF7 Y537S IC50
Outline: as §2

[7] = asterisk (*): protocol using 10 nM estradiol

Sequence of His6-ERα298-554 WT (ERα ligand-binding domain) (P03372 298-554): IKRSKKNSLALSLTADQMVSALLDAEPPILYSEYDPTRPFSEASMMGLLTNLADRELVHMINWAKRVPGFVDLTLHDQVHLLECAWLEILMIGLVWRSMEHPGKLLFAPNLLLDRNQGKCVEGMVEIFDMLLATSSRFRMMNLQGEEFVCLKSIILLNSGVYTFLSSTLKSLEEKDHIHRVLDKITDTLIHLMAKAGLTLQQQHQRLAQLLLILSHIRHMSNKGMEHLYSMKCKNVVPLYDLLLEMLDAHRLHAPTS
Sequence of ERα in MCF7 cells (P03372 whole entry): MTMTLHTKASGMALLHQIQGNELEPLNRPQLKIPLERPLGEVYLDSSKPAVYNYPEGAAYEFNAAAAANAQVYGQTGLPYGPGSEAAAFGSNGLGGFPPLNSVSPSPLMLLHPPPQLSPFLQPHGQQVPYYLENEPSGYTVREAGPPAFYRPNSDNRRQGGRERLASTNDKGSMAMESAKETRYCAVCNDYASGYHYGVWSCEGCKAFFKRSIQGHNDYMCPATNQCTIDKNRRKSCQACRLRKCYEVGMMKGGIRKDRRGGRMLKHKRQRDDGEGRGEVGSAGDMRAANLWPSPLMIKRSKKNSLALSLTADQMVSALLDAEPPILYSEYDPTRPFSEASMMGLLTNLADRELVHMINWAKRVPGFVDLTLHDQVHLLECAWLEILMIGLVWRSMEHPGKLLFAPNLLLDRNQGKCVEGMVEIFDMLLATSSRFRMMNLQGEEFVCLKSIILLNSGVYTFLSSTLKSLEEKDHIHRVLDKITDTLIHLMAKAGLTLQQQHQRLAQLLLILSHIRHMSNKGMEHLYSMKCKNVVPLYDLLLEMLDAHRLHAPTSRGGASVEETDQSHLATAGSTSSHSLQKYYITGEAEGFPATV
Sequence of His6-ERα298-554 D538G mutant (ERα ligand-binding domain) (P03372 298-554 D538G): as the sequence (P03372 298-554) above, with D241G counted along it
Sequence of His6-ERα298-554 Y537S mutant (ERα ligand-binding domain) (P03372 298-554 Y537S): as the sequence (P03372 298-554) above, with Y240S counted along it

| SMILES | IC50 [1, 7] | IC50 [2] | IC50 [3, 7] | IC50 [4, 7] | IC50 [5] | DC50 (ERα in MCF7 cells) | % Degradation at 3 μM (ERα in MCF7 cells) | IC50 [6] | IC50 ([1]; protocol with 3 nM estradiol) | IC50 ([3]; protocol with 3 nM estradiol) | IC50 ([4]; protocol with 3 nM estradiol) |
| --- | --- | --- | --- | --- | --- | --- | --- | --- | --- | --- | --- |
| Oc1ccc2c(c1)CCCC(c1ccc(Cl)cc1Cl)=C2c1cnc(O[C@H]2CCN(CCCF)C2)nc1 [Example 238, 6-(2,4-dichlorophenyl)-5-[2-[(3S)-1-(3-fluoropropyl)pyrrolidin-3-yl]oxypyrimidin-5-yl]-8,9-dihydro-7H-benzo[7]annulen-2-ol] | 3 nM | 0.5 nM | 33 nM | 59 nM | 0.3 nM | 0.5 nM | 87% | 3 nM |  |  |  |
| Cc1ccc(C2=C(c3ccc(O[C@H]4CCN(CCCF)C4)cc3)c3ccc(C(=O)O)cc3SC2)c(F)c1 [Example 25, 3-(2-fluoro-4-methyl-phenyl)-4-[4-[(3S)-1-(3-fluoropropyl)pyrrolidin-3-yl]oxyphenyl]-2H-thiochromene-7-carboxylic acid] | 1420 nM | 31 nM | > 4000 nM | > 4000 nM | 16 nM | 19 nM | 93% | 160 nM |  |  |  |
| CCN(CC)c1ccc(C2=C(c3ccc(O[C@H]4CCN(CCCF)C4)cc3)c3ccc(O)cc3SC2)c(F)c1 [Example 74, 3-[4-(diethylamino)-2-fluoro-phenyl]-4-[4-[(3S)-1-(3-fluoropropyl)pyrrolidin-3-yl]oxyphenyl]-2H-thiochromen-7-ol] | 322 nM | 16 nM | 2380 nM | > 4000 nM | 12 nM | 4 nM | 83% | 173 nM |  |  |  |
| CCOc1ccc(C2=C(c3ccc(O[C@H]4CCN(CCCF)C4)cc3)c3ccc(O)cc3SC2)c(F)c1 [Example 26, 3-(4-ethoxy-2-fluoro-phenyl)-4-[4-[(3S)-1-(3-fluoropropyl)pyrrolidin-3-yl]oxyphenyl]-2H-thiochromen-7-ol] |  | 2 nM |  |  | 0.9 nM | 0.8 nM | 90% | 10 nM | 3 nM | 39 nM | 67 nM |
| Oc1ccc2c(c1)SCCC(c1ccc(F)nc1F)=C2c1ccc(O[C@H]2CCN(CCCF)C2)cc1 [Example 215, 4-(2,6-difluoro-3-pyridyl)-5-[4-[(3S)-1-(3-fluoropropyl)pyrrolidin-3-yl]oxyphenyl]-2,3-dihydro-1-benzothiepin-8-ol] | 8 nM | 0.2 nM | 86 nM | 190 nM | 0.1 nM | 0.2 nM | 93% | 3 nM |  |  |  |
| CCOc1ccc(C2=C(c3ccc(O[C@H]4CCN(CCCF)C4)cc3)c3ccc(O)cc3SCC2)cc1F [Example 185, 4-(4-ethoxy-3-fluoro-phenyl)-5-[4-[(3S)-1-(3-fluoropropyl)pyrrolidin-3-yl]oxyphenyl]-2,3-dihydro-1-benzothiepin-8-ol] |  | 1 nM |  |  | 0.4 nM | 0.7 nM | 84% | 6 nM | 2.9 nM | 65 nM | 104 nM |
| Oc1ccc2c(c1)SCCC(c1ccc3c(c1)OC(F)(F)O3)=C2c1ccc(O[C@H]2CCN(CCCF)C2)cc1 [Example 193, 4-(2,2-difluoro-1,3-benzodioxol-5-yl)-5-[4-[(3S)-1-(3-fluoropropyl)pyrrolidin-3-yl]oxyphenyl]-2,3-dihydro-1-benzothiepin-8-ol] | 1 nM | 0.5 nM | 20 nM | 25 nM | 0.3 nM | 0.2 nM | 91% | 5 nM |  |  |  |
| CCOc1ccc(C2=C(c3ccc(O[C@H]4CCN(CCCF)C4)cc3)c3ccc(O)cc3SCC2)c(F)c1Cl [Example 221, 4-(3-chloro-4-ethoxy-2-fluoro-phenyl)-5-[4-[(3S)-1-(3-fluoropropyl)pyrrolidin-3-yl]oxyphenyl]-2,3-dihydro-1-benzothiepin-8-ol] | 11 nM | 0.6 nM | 133 nM | 265 nM | 0.5 nM | 0.2 nM | 84% | 8 nM |  |  |  |
